Numbered stars: 1 amine (or outer) side, 2 acyl side, 3 side chain; on linkers, the order of the positions; unused ones are H or OH. Peptide text beside a SMILES is read from it. * marks the point of attachment. C20 diacid = O=C(O)CCCCCCCCCCCCCCCCCCC(=O)*; γGlu = O=C(O)[C@H](CCC(=O)[*:2])N[*:1] Where only a bound is given, the exact number is not on record here.

In data set [1] the target is T1, Amylin receptor AMY3; CALCR/RAMP3 (Homo sapiens, UniProt O60896+P30988).
T1 sequence (P30988 whole entry): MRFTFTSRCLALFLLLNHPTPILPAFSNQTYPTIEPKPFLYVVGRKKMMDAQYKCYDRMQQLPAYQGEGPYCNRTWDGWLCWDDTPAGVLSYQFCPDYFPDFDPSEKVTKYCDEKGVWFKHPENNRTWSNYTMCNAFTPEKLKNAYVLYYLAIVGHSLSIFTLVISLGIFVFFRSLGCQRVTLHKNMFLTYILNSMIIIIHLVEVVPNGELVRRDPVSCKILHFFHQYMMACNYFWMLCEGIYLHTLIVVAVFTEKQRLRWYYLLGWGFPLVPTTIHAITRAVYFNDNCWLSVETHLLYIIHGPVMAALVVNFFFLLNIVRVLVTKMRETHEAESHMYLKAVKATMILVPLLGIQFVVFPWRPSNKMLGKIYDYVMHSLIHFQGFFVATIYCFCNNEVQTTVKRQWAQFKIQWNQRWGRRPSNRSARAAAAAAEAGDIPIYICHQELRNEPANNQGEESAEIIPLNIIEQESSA
T1 sequence (O60896 whole entry): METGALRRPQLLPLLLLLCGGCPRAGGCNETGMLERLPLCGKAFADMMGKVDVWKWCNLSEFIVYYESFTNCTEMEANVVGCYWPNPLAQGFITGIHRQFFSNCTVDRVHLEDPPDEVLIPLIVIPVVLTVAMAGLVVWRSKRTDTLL
The data set can be described thus: Displacement of [125I]-labeled rat amylin from human amylin receptor expressed in BHK tkts13 whole cells co-expressing RAMP3 incubated for 60 mins by scintillation proximity assay. The format is cell-based. In general terms: Displacement assays read how much labelled ligand stays bound in the presence of the test substance.

Data set [2] concerns the target T2, Amylin receptor AMY3; CALCR/RAMP3 (Rattus norvegicus, UniProt P32214+Q9JJ73).
T2 sequence (P32214 whole entry): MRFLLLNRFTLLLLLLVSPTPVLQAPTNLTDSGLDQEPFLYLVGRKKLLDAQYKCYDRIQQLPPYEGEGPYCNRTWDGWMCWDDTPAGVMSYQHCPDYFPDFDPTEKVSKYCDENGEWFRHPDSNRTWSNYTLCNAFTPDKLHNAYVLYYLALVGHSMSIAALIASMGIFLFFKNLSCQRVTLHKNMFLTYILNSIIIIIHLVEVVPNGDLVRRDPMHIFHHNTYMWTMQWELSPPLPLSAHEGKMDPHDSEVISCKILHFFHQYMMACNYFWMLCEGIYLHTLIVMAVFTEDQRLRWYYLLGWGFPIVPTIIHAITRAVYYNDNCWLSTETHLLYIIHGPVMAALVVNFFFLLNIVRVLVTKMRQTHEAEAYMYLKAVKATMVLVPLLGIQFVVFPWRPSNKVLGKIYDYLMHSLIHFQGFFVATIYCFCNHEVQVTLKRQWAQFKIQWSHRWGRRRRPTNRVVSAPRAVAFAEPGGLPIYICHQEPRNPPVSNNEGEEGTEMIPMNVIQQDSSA
T2 sequence (Q9JJ73 whole entry): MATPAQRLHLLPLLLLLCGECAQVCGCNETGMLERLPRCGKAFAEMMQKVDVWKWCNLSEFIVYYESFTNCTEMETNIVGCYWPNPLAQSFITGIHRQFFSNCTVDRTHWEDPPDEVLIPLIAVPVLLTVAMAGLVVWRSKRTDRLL
The data set can be described thus: Displacement of [125I]-labeled rat amylin from rat amylin receptor expressed in BHK tkts13 cell membranes co-expressing RAMP3 incubated for 120 mins by scintillation proximity assay.

Data set [3] is described as follows: Solubility in 100 mM bistrispropane buffer at pH 6.0 incubated for 18 hrs by UPLC analysis. Format: physicochemical.
Data set [4] in a line: Solubility in 100 mM glycylglycine buffer at pH 5.0 incubated for 18 hrs by UPLC analysis. The format is physicochemical.
The target in data set [5] is T3, Calcitonin receptor (Homo sapiens, UniProt P30988).
T3 sequence (P30988 whole entry): T1 sequence (P30988 whole entry)
The data set can be described thus: Agonist activity at human calcitonin receptor expressed in BHK570 cells assessed as increase in intracellular cAMP concentration incubated for 3 hrs in presence of 10% FBS by CRE luciferase reporter gene assay. Format: functional, cell-based. (In general: A reporter such as luciferase makes a cellular process visible.)

In data set [6] the target is T1, Amylin receptor AMY3; CALCR/RAMP3. Nature of the data set: Agonist activity at human amylin receptor expressed in BHK570 cells co-expressing RAMP3 assessed as increase in intracellular cAMP concentration incubated for 3 hrs in absence of albumin by CRE luciferase reporter gene assay. The format is functional, cell-based.
Data set [7] has as its system Rattus norvegicus. The data set can be described thus: Reduction in food intake in Sprague-Dawley rat at 3 nmol/kg measured 0 to 24 hrs post dose relative to control. Also noted: scale not given: the % may be the effect or the level left. Format: functional.
Data set [8] deals with T3, Calcitonin receptor. The data set can be described thus: Displacement of [125I]-labeled human calcitonin from human calcitonin receptor expressed in BHK tkts13 cell membranes incubated for 1 hr by scintillation proximity assay.
For data set [9], the system named is Rattus norvegicus. The data set can be described thus: Reduction in food intake in Sprague-Dawley rat at 3 nmol/kg measured 24 to 48 hrs post dose relative to control. Also noted: scale not given: the % may be the effect or the level left. Format: functional.
Data set [10] addresses T1, Amylin receptor AMY3; CALCR/RAMP3. Nature of the data set: Displacement of [125I]-labeled rat amylin from human amylin receptor expressed in BHK570 cell membranes co-expressing RAMP3 incubated for 120 mins by scintillation proximity assay.
A short description of data set [11]: Solubility in 100 mM glycylglycine buffer at pH 4.0 incubated for 18 hrs by UPLC analysis. The format is physicochemical.
A short description of data set [12]: Solubility in 100 mM glycylglycine buffer at pH 3.0 incubated for 18 hrs by UPLC analysis. The format is physicochemical.
A short description of data set [13]: Solubility in 100 mM bistrispropane buffer at pH 6.5 incubated for 18 hrs by UPLC analysis. Format: physicochemical.
A short description of data set [14]: Solubility in 100 mM bistrispropane buffer at pH 8.0 incubated for 18 hrs by UPLC analysis. The format is physicochemical.
Data set [15] can be described thus: Solubility in 100 mM bistrispropane buffer at pH 7.5 incubated for 18 hrs by UPLC analysis. Format: physicochemical.
Data set [16] is described as follows: Solubility in 100 mM bistrispropane buffer at pH 7.0 incubated for 18 hrs by UPLC analysis. The format is physicochemical.
Data set [17] concerns the target T3, Calcitonin receptor. The data set can be described thus: Agonist activity at human calcitonin receptor expressed in BHK570 cells assessed as increase in intracellular cAMP concentration incubated for 3 hrs in absence of albumin by CRE luciferase reporter gene assay. The format is functional, cell-based.

On to `CC(C)C[C@H](NC(=O)[C@H](C)NC(=O)[C@H](C)NC(=O)[C@@H](NC(=O)[C@H](CO)NC(=O)[C@H](CC(C)C)NC(=O)[C@H](CCC(=O)O)NC(=O)[C@H](CO)NC(=O)[C@H](C)NC(=O)CC[C@H](NC(=O)CCCCCCCCCCCCCCCCCCC(=O)O)C(=O)O)[C@@H](C)O)C(=O)NCC(=O)N[C@@H](Cc1cnc[nH]1)C(=O)N[C@@H](CC(C)C)C(=O)N[C@@H](CO)C(=O)N[C@@H](C)C(=O)N[C@@H](CCC(=O)O)C(=O)N[C@@H](CC(C)C)C(=O)N[C@@H](Cc1cnc[nH]1)C(=O)N[C@@H](CCC(=O)O)C(=O)N[C@@H](CC(C)C)C(=O)N[C@@H](C)C(=O)N[C@H](C(=O)N[C@@H](CC(C)C)C(=O)N1CCC[C@H]1C(=O)N[C@@H](CCCNC(=N)N)C(=O)N[C@H](C(=O)N[C@@H](CCC(=O)O)C(=O)N[C@H](C(=O)NCC(=O)N[C@@H](CO)C(=O)NCC(=O)N[C@@H](CO)C(=O)N1CCC[C@H]1C(N)=O)[C@@H](C)O)[C@@H](C)O)[C@@H](C)O` ({C20 diacid-γGlu}-ASELSTAALGHLSAELHELATLPRTETGSGSP-NH2), for which the IC50 – broadly, the midpoint of a concentration-inhibition curve – in data set [1] was 0.697 nM; in data set [2], 1.53 nM; at Calcitonin receptor [8], 0.097 nM; in data set [10], 0.565 nM. The solubility at 18 h in data set [3], in [4], in data set [11], in data set [12], in data set [13] and in [14] was at least 200 µM throughout. Also, the solubility at 18 h in data set [15] and in data set [16] was at least 200 µM in each case. Further, the half-maximal effective concentration (EC50) – broadly, the concentration needed to bring the measured effect to its halfway point – was 0.048 nM at Calcitonin receptor [5], 0.017 nM in data set [6] and 0.012 nM on Calcitonin receptor [17]. The Activity with Rattus norvegicus [7] was 17%; in the data set with Rattus norvegicus [9], 11%.

`CC(C)C[C@H](NC(=O)CNC(=O)[C@H](CO)NC(=O)[C@H](C)NC(=O)CC[C@H](NC(=O)CCCCCCCCCCCCCCCCCCC(=O)O)C(=O)O)C(=O)N[C@@H](CO)C(=O)N[C@H](C(=O)N[C@@H](C)C(=O)N[C@@H](C)C(=O)N[C@@H](CC(C)C)C(=O)NCC(=O)N[C@@H](CCCNC(=N)N)C(=O)N[C@@H](CC(C)C)C(=O)N[C@@H](CO)C(=O)N[C@@H](CCC(N)=O)C(=O)N[C@@H](CCC(=O)O)C(=O)N[C@@H](CC(C)C)C(=O)N[C@@H](Cc1cnc[nH]1)C(=O)N[C@@H](CCC(=O)O)C(=O)N[C@@H](CC(C)C)C(=O)N[C@@H](CCC(N)=O)C(=O)N[C@H](C(=O)N[C@@H](Cc1ccc(O)cc1)C(=O)N1CCC[C@H]1C(=O)N[C@@H](Cc1cnc[nH]1)C(=O)N[C@H](C(=O)N[C@@H](CCC(=O)O)C(=O)N[C@H](C(=O)NCC(=O)N[C@@H](CO)C(=O)NCC(=O)N[C@H](C(=O)N[C@@H](Cc1ccc(O)cc1)C(N)=O)[C@@H](C)O)[C@@H](C)O)[C@@H](C)O)[C@@H](C)O)[C@@H](C)O` ({C20 diacid-γGlu}-ASGLSTAALGRLSQELHELQTYPHTETGSGTY-NH2): the IC50 in data set [1] is 0.142 nM; in data set [2], 0.026 nM; at Calcitonin receptor [8], 0.15 nM; in data set [10], 0.166 nM. The solubility at 18 h in data set [3], in [11], in data set [12], in [13], in data set [14] and in data set [15] was at least 200 µM in each case. For the same compound, the solubility – broadly, the concentration that dissolves in the medium under given conditions – at 18 h in [16] was at least 200 µM. For the same compound, the EC50 at Calcitonin receptor [5] is 0.099 nM; in [6] it was 0.041 nM; at Calcitonin receptor [17], 0.027 nM. Besides, the Activity came out at 20% in the data set with Rattus norvegicus [7] and 14% in the data set on Rattus norvegicus [9].
